Source: patent US6770292B2, “Pharmaceutical compositions for oral administration” (Capsules, priority 2000, dated 2004)

Test system: blood calcium
Assay: Blood calcium (calcemia) in rats after administration of calcitonin compositions
Type: in vivo, female Wistar rats
Settings: oral, 72 IU per animal, FIG. 5
Description: The study was carried out on female Wistar rats weighing 150 g, divided into groups of 4 rats. Oral administration was effected using an esophageal tube in a volume of 300 μl, corresponding to […] administered per animal.
A volume of 100 μl of an aqueous solution of calcitonin with a titer of 20 IU/ml, corresponding to a dose of 2 IU of calcitonin per animal, was administered subcutaneously to a positive control group.
A volume of 300 μl of an aqueous solution of calcitonin with a titer of 240 IU/ml, corresponding to 72 IU per animal, was administered orally to a negative control group.
The animals were fasted (water diet) 24 hours before the experiment. Blood samples were taken retro-orbitally under general anesthetic at T0 (before administration), T0+1 h, T0+2 h or T0+3 h, T0+5 h. 50 μl of blood are collected in microcapillary tubes containing heparin.
The blood calcium and pH are measured immediately after sample collection, directly in the microcapillary tube, by means of a CIBA-CORNING model 634 automatic analyzer to give the calcemia.

## calcitonin [non-encapsulated calcitonin solution]
  decrease of calcemia: not observed
